Measured values: US12433874B2 (PRESCIENCE BIOTECHNOLOGY INC., priority 2022, dated 2025)

What was measured:
[1] = test system: CT26 cells (murine colorectal carcinoma cell); test: CT26 mouse colon cancer model; format: in vivo; conditions: 5-FU 25 mg/kg Q3d*4, RAP-E 25 mg/kg Q3d*4
Description: CT26 model on Balb/c mice was used as another animal model, classified as three groups: a control group (no drug), a comparative group (administration of 5-FU, dose: 25 mg/kg, Q3d*4) and the inventive group (administration of RAP-E formulation, dose: 25 mg/kg, Q3d*4). 6 week old Balb/c mice (BioLasco, Ilan, Taiwan) were inoculated subcutaneously with 1*10^5 CT26 cells (murine colorectal carcinoma cell). Following tumor inoculation, measuring the tumor size twice a week, and starting treatment when the tumor grows to 80-100 mm^3.

[2] = test system: SKOV3 cells (human ovarian cancer cell); format: in vivo; conditions: docetaxel 4 mg/kg Q3d*4; RAP-E 50 mg/kg Q3d*4
Description: Akt and mTOR phosphorylation are frequently detected in ovarian cancer, and SKOV3, an ovarian cancer cell line, is resistant to cis-platinum and doxorubicin.

[3] = tablet form; cited from earlier work
[4] = BCS Class II drug; cited from earlier work

## O=c1[nH]cc(F)c(=O)[nH]1 [5-FU]
[1]
  Mean inhibition rate (tumor volume): 11%
  toxicity (body weight change): significant weight loss
[1]; day 16
  Day 16 tumor inhibition rate: 26%

## CC(=O)O[C@@]12CO[C@@H]1C[C@H](O)[C@@]1(C)C(=O)[C@H](O)C3=C(C)[C@@H](OC(=O)[C@H](O)[C@@H](NC(=O)OC(C)(C)C)c4ccccc4)C[C@@](O)([C@@H](OC(=O)c4ccccc4)[C@H]21)C3(C)C [docetaxel]
[2]
  Mean inhibition rate (tumor volume): 53%

## CO[C@H]1C[C@@H]2CC[C@@H](C)[C@@](O)(O2)C(=O)C(=O)N2CCCC[C@H]2C(=O)O[C@H]([C@H](C)C[C@@H]2CC[C@@H](OCCO)[C@H](OC)C2)CC(=O)[C@H](C)/C=C(\C)[C@@H](O)[C@@H](OC)C(=O)[C@H](C)C[C@H](C)/C=C/C=C/C=C/1C [everolimus]
[3]
  bioavailability: ~20%

## CO[C@H]1C[C@@H]2CC[C@@H](C)[C@@](O)(O2)C(=O)C(=O)N2CCCC[C@H]2C(=O)O[C@H]([C@H](C)C[C@@H]2CC[C@@H](O)[C@H](OC)C2)CC(=O)[C@H](C)/C=C(\C)[C@@H](O)[C@@H](OC)C(=O)[C@H](C)C[C@H](C)/C=C/C=C/C=C/1C [Rapamycin]
[4]
  permeability: high permeability
